Reference: patent US10294202B2, “Pyrrolidinones as herbicides” (FMC Corporation, priority 2013, dated 2019)

Experiments:
surinam grass = assay: Test C pre-/postemergence herbicide test; type: in vivo, Brachiaria decumbens
From the text: Seeds of plant species selected from blackgrass (Alopecurus myosuroides), ryegrass, Italian (Italian ryegrass, Lolium multiflorum), wheat (winter wheat, Triticum aestivum), galium (catchweed bedstraw, Galium aparine), corn (Zea mays), crabgrass, large (large crabgrass, Digitaria sanguinalis), foxtail, giant (giant foxtail, Setaria faberii), johnsongrass (Sorghum halepense), lambsquarters (Chenopodium album), morningglory (Ipomoea coccinea), nutsedge, yellow (yellow nutsedge, Cyperus esculentus), pigweed (Amaranthus retroflexus), ragweed (common ragweed, Ambrosia elatior), soybean (Glycine max), barnyardgrass (Echinochloa crus-galli), oilseed rape (Brassica napus), waterhemp (common waterhemp, Amaranthus rudis), kochia (Kochia scoparia), oat, wild (wild oat, Avena fatua), surinam grass (Brachiaria decumbens), foxtail, green (green foxtail, Setaria viridis), goosegrass (Eleusine indica), bromegrass, downy (downy bromegrass, Bromus tectorum), nightshade (eastern black nightshade, Solanum ptycanthum), cocklebur (common cocklebur, Xanthium strumarium), cupgrass, woolly (woolly cupgrass, Eriochloa villosa), bermudagrass (Cynodon dactylon), sunflower, (common oilseed sunflower, Helianthus annuus), Russian thistle (Salsola kali) and velvetleaf (Abutilon theophrasti) were planted into a blend of loam soil and sand and treated preemergence with test chemicals formulated in a non-phytotoxic solvent mixture which included a surfactant. At the same time, plants selected from these crop and weed species and also barley (winter barley, Hordeum vulgare), […]), chickweed (common chickweed, Stellaria media), deadnettle (henbit deadnettle, Lamium amplexicaule), and canarygrass (littleseed canarygrass, Phalaris minor) were planted in pots containing Redi-Earth® planting medium (Scotts Company, 14111 Scottslawn Road, Marysville, Ohio 43041) comprising spaghnum peat moss, vermiculite, wetting agent and starter nutrients and treated with postemergence applications of test chemicals formulated in the same manner. Plants ranged in height from 2 to 18 cm (1- to 4-leaf stage) for postemergence treatments. Treated plants and controls were maintained in a greenhouse for 13 to 15 days, after which time all species were compared to controls and visually evaluated. Plant response ratings, summarized in Table C, are based on a scale of 0 to 100 where 0 is no effect and 100 is complete control. A dash (-) response means no test result.

nightshade = assay: Test C pre-/postemergence herbicide test; type: in vivo, Solanum ptycanthum; conditions: Preemergence
Procedure, shortened: (§1)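 Test compounds, formulated in a surfactant-containing non-phytotoxic solvent blend, are applied to seeded loam/sand soil (preemergence) and to young plants at the 1- to 4-leaf stage in peat-based medium (postemergence). Plants stay 13 to 15 days under greenhouse conditions, then are scored visually relative to controls, 0 = no effect, 100 = complete control.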

cocklebur = assay: Test C pre-/postemergence herbicide test; type: in vivo, Xanthium strumarium
Procedure, shortened: as §1

speedwell = assay: Test D pre-/postemergence herbicide test; type: in vivo, Veronica persica; conditions: for Plant response rating: Postemergence, Speedwell, scale 0 to 100; for Plant response rating, Speedwell: Preemergence, scale 0 to 100 (0 no effect, 100 complete control)
From the text: Seeds of plant species selected from bluegrass (annual bluegrass, Poa annua), blackgrass (Alopecurus myosuroides), canarygrass (littleseed canarygrass, Phalaris minor), chickweed (common chickweed, Stellaria media), galium (catchweed bedstraw, Galium aparine), bromegrass, downy (downy bromegrass, Bromus tectorum), field poppy (Papaver rhoeas), field violet (Viola arvensis), foxtail, green (green foxtail, Setaria viridis), deadnettle (henbit deadnettle, Lamium amplexicaule), ryegrass, Italian (Italian ryegrass, Lolium multiflorum), kochia (Kochia scoparia), lambsquarters (Chenopodium album), oilseed rape (Brassica napus), pigweed (Amaranthus retroflexus), chamomile (scentless chamomile, Matricaria inodora), Russian thistle (Salsola kali), speedwell (bird's-eye speedwell, Veronica persica), barley, spring (spring barley, Hordeum vulgare), wheat, spring (spring wheat, Triticum aestivum), buckwheat, wild (wild buckwheat, Polygonum convolvulus), mustard, wild (wild mustard, Sinapis arvensis), oat, wild (wild oat, Avena fatua), radish, wild (wild radish, Raphanus raphanistrum), […]), barley, winter (winter barley, Hordeum vulgare), and wheat, winter (winter wheat, Triticum aestivum) were planted into a silt loam soil and treated preemergence with test chemicals formulated in a non-phytotoxic solvent mixture which included a surfactant. At the same time, these species were planted in pots containing Redi-Earth® planting medium (Scotts Company, 14111 Scottslawn Road, Marysville, Ohio 43041) comprising spaghnum peat moss, vermiculite, wetting agent and starter nutrients and treated with postemergence applications of the test chemicals formulated in the same manner. Plants ranged in height from 2 to 18 cm (1- to 4-leaf stage). Treated plants and controls were maintained in a controlled growth environment for 7 to 21 days after which time all species were compared to controls and visually evaluated. Plant response ratings, summarized in Table D, are based on a scale of 0 to 100 where 0 is no effect and 100 is complete control. A dash (-) response means no test result.

watergrass, late = assay: Test F flood (paddy) test; type: in vivo, Echinochloa oryzicola; conditions: 21 d, scale 0-100
Procedure, shortened: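 Visual injury ratings (0 no effect to 100 complete control) were taken 21 d after treatment against untreated controls. Compounds went directly into paddy water held 3 cm above soil, applied at the 2.0–2.5-leaf stage in sterilized Tama silt loam under a 30/27 °C, 16-h greenhouse regime.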

[1] = Postemergence, 31 g ai/ha, scale 0 (no effect) to 100 (complete control)
[2] = Postemergence, 62 g ai/ha, scale 0 to 100 (0 no effect, 100 complete control)
[3] = Postemergence, 250 g ai/ha, scale 0 to 100 (0 no effect, 100 complete control)
[4] = Preemergence, 62 g ai/ha, scale 0 to 100
[5] = Preemergence, 125 g ai/ha, scale 0 to 100 (0 no effect, 100 complete control)
[6] = 125 g ai/ha, scale 0 to 100 (0 no effect, 100 complete control)
[7] = Postemergence, 125 g ai/ha, scale 0 to 100 (0 no effect, 100 complete control)
[8] = Preemergence, 31 g ai/ha, scale 0 to 100 (0 no effect, 100 complete control)
[9] = Preemergence, 250 g ai/ha, scale 0 to 100 (0 no effect, 100 complete control)
[10] = Preemergence, 31 g ai/ha, scale 0 to 100, 0 is no effect and 100 is complete control

Row | SMILES | Plant response rating, Surinam Grass (surinam grass; [1]) | Plant response rating, Surinam Grass (surinam grass; [2]) | Plant response rating, Surinam Grass (surinam grass; [3]) | Plant response rating, Surinam Grass (surinam grass; [4]) | Plant response rating, Surinam Grass (surinam grass; [5]) | Plant response rating, Nightshade (nightshade; 62 g ai/ha, scale 0 to 100) | Plant response rating, Nightshade (nightshade; [6]) | Plant response rating, Cocklebur (cocklebur; [1]) | Plant response rating, Cocklebur (cocklebur; [2]) | Plant response rating, Cocklebur (cocklebur; [7]) | Plant response rating, Cocklebur (cocklebur; [3]) | Plant response rating, Cocklebur (cocklebur; [4]) | Plant response rating, Cocklebur (cocklebur; [5]) | Cocklebur plant response rating (cocklebur; [8]) | Plant response rating (speedwell; 16 g ai/ha) | Plant response rating (speedwell; 31 g ai/ha) | Plant response rating (speedwell; 62 g ai/ha) | Plant response rating (speedwell; 125 g ai/ha) | Plant response rating (speedwell; 250 g ai/ha) | Plant response rating, Cocklebur (cocklebur; [9]) | also measured
1 | O=C1NCC(c2ccc(Cl)c(F)c2)C1C(=O)Nc1cccc(F)c1F (stereo not shown) [Compound 52] | 0 | 5 | 30 | 35 | 45 | 0 | 0 | 5 | 5 | 5 | 5 | 0 | 0 | 0 | 20 | 20 | 25 | 40 | 70 | – | Plant response rating, Speedwell (speedwell; 62 g ai/ha): 90; Plant response rating, Speedwell (speedwell; 125 g ai/ha): 100; Plant response rating, Speedwell (speedwell; 16 g ai/ha): 0; Plant response rating, Speedwell (speedwell; 31 g ai/ha): 90; Plant response rating, Speedwell (speedwell; 250 g ai/ha): 100
2 | O=C1NCCC1C(=O)N(c1ccc(F)c(F)c1)c1ccccc1F (stereo not shown) [Compound 5, N-(3,4-difluorophenyl)-N-(2-fluorophenyl)-2-oxo-3-pyrrolidinecarboxamide] | – | – | – | 85 | 95 | 45 | 45 | – | – | – | – | 0 | 0 | 0 | – | – | – | – | – | 0 | Plant response rating, Watergrass, Late (watergrass, late; 125 g ai/ha): 55; Plant response rating, Watergrass, Late (watergrass, late; 250 g ai/ha): 70; Plant response rating, Watergrass, Late (watergrass, late; 500 g ai/ha): 75; Plant response rating, Watergrass, Late (watergrass, late; 1000 g ai/ha): 100; Plant response rating, Watergrass, Late (watergrass, late; 2000 g ai/ha): 100
3 | O=C1NCC(c2ccc(F)c(F)c2)C1C(=O)Nc1cccc(F)c1F (stereo not shown) [Compound 17, N-(2,3-difluorophenyl)-4-(3,4-difluorophenyl)-2-oxo-3-pyrrolidinecarboxamide] | 0 | 0 | 60 | 90 | 90 | 20 | 40 | 0 | 0 | 0 | 0 | 5 | 5 | 0 | 0 | 0 | 0 | 0 | 0 | 5 | Plant response rating, Surinam Grass (surinam grass; [7]): 45; Plant response rating, Watergrass, Late (watergrass, late; 125 g ai/ha): 80; Plant response rating, Watergrass, Late (watergrass, late; 250 g ai/ha): 85; Plant response rating, Watergrass, Late (watergrass, late; 500 g ai/ha): 90; Plant response rating, Watergrass, Late (watergrass, late; 1000 g ai/ha): 90; Plant response rating, Watergrass, Late (watergrass, late; 2000 g ai/ha): 95
4 | O=C1NCC(c2cccc(OC(F)(F)F)c2)C1C(=O)Nc1ccccc1F (stereo not shown) [Compound 69] | – | – | – | 75 | 85 | 0 | 0 | – | – | – | – | – | – | – | – | – | – | – | – | – | Surinam Grass plant response rating (surinam grass; [10]): 60; Plant response rating (scale of 0 to 100), Surinam Grass (surinam grass; Preemergence, 250 g ai/ha): 85; Nightshade plant response rating (nightshade; 31 g ai/ha, scale 0 to 100, 0 is no effect and 100 is complete control): 0; Plant response rating (scale of 0 to 100), Nightshade (nightshade; 250 g ai/ha): 0; Cocklebur plant response rating (cocklebur; [10]): 0; Plant response rating (scale of 0 to 100), Cocklebur (cocklebur; Preemergence, 250 g ai/ha): 0
